From patent US20040157738A1, “Novel oxygen containing fused cyclic derivatives and herbicidal, desiccant and defoliate compositions containing them” (ISHIHARA SANGYO KAISHA, LTD., priority 2003, published 2004)

What was measured:
Format in all cases: in vivo
[1] = test system: crabgrass (Digitaria sanguinalis L.): DIGSA; assay: Test Example 1: pre-emergence herbicidal activity (growth controlling degree); conditions: 250 g a.i./ha, 20th to 21st day after application
Procedure, shortened: (§1)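 Seeds sown in upland field soil in pots; one day later, wettable powder or emulsifiable concentrate diluted in water at 500 L/ha was sprayed pre-emergence at a predetermined active-ingredient amount. Growth visually scored 20–21 days after application as growth controlling degree, 0 (untreated-like) to 100% (complete kill).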

[2] = test system: redroot pigweed (Amaranthus retroflexus L.): AMARE; assay: as above; conditions: 250 g a.i./ha, 20th to 21st day after application
Procedure, shortened: as §1

[3] = test system: green foxtail (Setaria viridis L.): SETVI; assay: as above; conditions: 250 g a.i./ha, 20th to 21st day after application
Procedure, shortened: as §1

[4] = test system: barnyardgrass (Echinochloa crus-galli L.): ECHCC; assay: as above; conditions: 250 g a.i./ha, 20th to 21st day after application
Procedure, shortened: as §1

[5] = test system: soybean (Glycine max Merr.): GLXMA; assay: as above; conditions: 250 g a.i./ha, 20th to 21st day after application
Procedure, shortened: as §1

[6] = test system: prickly sida (Sida spinosa L.): SIDSP; assay: as above; conditions: 250 g a.i./ha, 20th to 21st day after application
Procedure, shortened: as §1

[7] = test system: velvetleaf (Abutilon theophrasti): ABUTH; assay: as above; conditions: 250 g a.i./ha, 20th to 21st day after application
Procedure, shortened: as §1

[8] = test system: corn (Zea mays L.): ZEAMX; assay: as above; conditions: 250 g a.i./ha, 20th to 21st day after application
Procedure, shortened: as §1

[9] = test system: rice (Oryza sativa L.): ORYSA; assay: as above; conditions: 250 g a.i./ha, 20th to 21st day after application
Procedure, shortened: as §1

[10] = test system: common cocklebur (Xanthium strumarium L.): XANST; assay: as above; conditions: 250 g a.i./ha, 20th to 21st day after application
Procedure, shortened: as §1

[11] = test system: redroot pigweed (Amaranthus retroflexus L.), AMARE; assay: Test Example 2: post-emergence (foliage treatment) herbicidal activity (growth controlling degree); conditions: 31 g a.i./ha, 0.1-0.3 leaf stage
Procedure, shortened: (§2)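 Seeds sown in upland field soil; foliage treated by small sprayer once seedlings reached target stages (ECHCG 1.8-2.4 lf, AMARE 0.1-0.3 lf, XANST 0.2-0.6 lf, GLXMA 0.2-0.3 lf). Spray: WP/EC in water, 500 L/ha, spreader 0.1% v/v. Read-out: visual % control.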

[12] = test system: prickly sida (Sida spinosa L.), SIDSP; assay: as above; conditions: 31 g a.i./ha, 0.3-0.5 leaf stage
Procedure, shortened: (§3)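 Herbicidal effect is rated by eye as growth control from 0 (like untreated plants) to 100 (plants killed). Compound, formulated as wettable powder or emulsifiable concentrate, is applied post-emergence to foliage in water at 500 L/ha with 0.1%(v/v) spreader.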

[13] = test system: common cocklebur (Xanthium strumarium L.), XANST; assay: as above; conditions: 31 g a.i./ha, 0.2-0.6 leaf stage
Procedure, shortened: as §2

[14] = test system: soybean (Glycine max Merr.), GLXMA; assay: as above; conditions: 31 g a.i./ha, 0.2-0.3 leaf stage
Procedure, shortened: as §2

[15] = test system: velvetleaf (Abutilon theophrasti), ABUTH; assay: as above; conditions: 31 g a.i./ha, 0.3-0.4 leaf stage
Procedure, shortened: as §3

[16] = test system: crabgrass (Digitaria sanguinalis L.), DIGSA; assay: as above; conditions: 31 g a.i./ha, 1.5-2.2 leaf stage
Procedure, shortened: as §3

[17] = test system: green foxtail (Setaria viridis L.), SETVI; assay: as above; conditions: 31 g a.i./ha, 1.7-2.5 leaf stage
Procedure, shortened: as §3

[18] = test system: corn (Zea mays L.), ZEAMX; assay: as above; conditions: 31 g a.i./ha, 2.2-2.5 leaf stage
Procedure, shortened: as §3

[19] = test system: rice (Oryza sativa L.), ORYSA; assay: as above; conditions: 31 g a.i./ha, 1.6-2.2 leaf stage
Procedure, shortened: as §3

[20] = test system: barnyardgrass (Echinochloa crus-galli L.), ECHCG; assay: as above; conditions: 31 g a.i./ha, 1.8-2.4 leaf stage
Procedure, shortened: as §2

CC1CCc2c(c(Cl)cc(F)c2-c2nn3c(c2Cl)CCCC3)O1 (centres unmarked) [Compound 1-85]
growth controlling degree, DIGSP [1]: 60%
growth controlling degree, AMARE [2]: 95%
growth controlling degree, SETVI [3]: 80%
growth controlling degree, ECHCG [4]: 60%
growth controlling degree, GLXMA [5]: 0%
growth controlling degree, SIDSP [6]: 20%
growth controlling degree, ABUTH [7]: 30%
growth controlling degree, ZEAMX [8]: 10%
growth controlling degree, ORYSA [9]: 10%
growth controlling degree, XANST [10]: 0%
growth controlling degree, AMARE [11]: 70%
growth controlling degree, SIDSP [12]: 95%
growth controlling degree, XANST [13]: 100%
growth controlling degree, GLXMA [14]: 50%
growth controlling degree, ABUTH [15]: 100%
growth controlling degree, DIGSP [16]: 40%
growth controlling degree, SETVI [17]: 80%
growth controlling degree, ZEAMX [18]: 50%
growth controlling degree, ORYSA [19]: 40%
growth controlling degree, ECHCG [20]: 70%
